Activity calls are given as the source filed them. No stated cut-off is given here; in the data, actives have a measured IC50 and inactives only a lower limit.

The assay deals with Envelope glycoprotein gp160 (Human immunodeficiency virus 1, UniProt Q6QLK5). The assay is described as follows: cell-free HIV fusion peptide-binding blockers – biochemical, uHTS, fluorescence dequenching, […] (AID 1986).
Envelope glycoprotein gp160, sequence (Q6QLK5 whole entry, the tested form may be a part): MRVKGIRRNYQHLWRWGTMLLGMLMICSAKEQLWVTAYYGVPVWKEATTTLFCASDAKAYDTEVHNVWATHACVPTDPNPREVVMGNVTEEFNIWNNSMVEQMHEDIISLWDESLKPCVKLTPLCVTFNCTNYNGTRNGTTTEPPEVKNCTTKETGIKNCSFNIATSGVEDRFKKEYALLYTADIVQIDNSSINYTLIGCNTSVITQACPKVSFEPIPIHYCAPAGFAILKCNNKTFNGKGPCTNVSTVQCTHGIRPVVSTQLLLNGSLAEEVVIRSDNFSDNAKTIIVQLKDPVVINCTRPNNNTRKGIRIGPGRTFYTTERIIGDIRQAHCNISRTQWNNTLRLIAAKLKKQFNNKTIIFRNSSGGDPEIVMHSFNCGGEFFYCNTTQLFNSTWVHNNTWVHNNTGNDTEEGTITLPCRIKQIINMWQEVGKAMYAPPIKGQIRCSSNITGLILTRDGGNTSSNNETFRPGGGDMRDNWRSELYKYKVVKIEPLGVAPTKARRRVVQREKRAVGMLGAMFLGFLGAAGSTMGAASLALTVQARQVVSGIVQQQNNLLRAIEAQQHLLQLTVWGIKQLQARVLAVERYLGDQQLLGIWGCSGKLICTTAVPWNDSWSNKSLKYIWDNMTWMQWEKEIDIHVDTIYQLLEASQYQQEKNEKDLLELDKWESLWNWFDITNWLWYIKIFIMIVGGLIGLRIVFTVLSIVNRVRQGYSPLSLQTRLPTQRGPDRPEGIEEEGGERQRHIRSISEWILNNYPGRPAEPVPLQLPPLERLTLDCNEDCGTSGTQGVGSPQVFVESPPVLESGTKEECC

Turning to `Cc1cc(Cl)ccc1OC(C)C(=O)Nc1ccc(S(=O)(=O)Nc2cnc3ccccc3n2)cc1` (stereo unspecified), the half-maximal inhibitory concentration (IC50) (in general, the concentration that inhibits the measured activity by half) was 21.3 µM (active).

For the origin of these results see ChEMBL document CHEMBL1201862, “PubChem BioAssay data set” (2004).
